# Laboratory results published in US20050119253A1, “Method of treating mental disorders using of D4 and 5-HT2A antagonists, inverse agonists or partial agonists” (priority 2003, published 2005).
# Where two headings read alike, the source gives them in different places.
# Key:
# Type in all cases: binding
# 5HT2B = 5HT2B (Homo sapiens, UniProt P41595); experiment: pKi of test compounds, 5HT2B receptor
# D3 = D3 (Homo sapiens, UniProt P35462); experiment: pKi of test compounds, D3 receptor
# 5HT1B = 5HT1B (Homo sapiens, UniProt P28222); experiment: pKi of test compounds, 5HT1B receptor
# 5HT1D = 5HT1D (Homo sapiens, UniProt P28221); experiment: pKi of test compounds, 5HT1D receptor
# Alpha2A = target: T1, Alpha2A (Homo sapiens, UniProt P08913); experiment: pKi of test compounds, adrenergic receptor Alpha2A
# T1 sequence (P08913 1-465): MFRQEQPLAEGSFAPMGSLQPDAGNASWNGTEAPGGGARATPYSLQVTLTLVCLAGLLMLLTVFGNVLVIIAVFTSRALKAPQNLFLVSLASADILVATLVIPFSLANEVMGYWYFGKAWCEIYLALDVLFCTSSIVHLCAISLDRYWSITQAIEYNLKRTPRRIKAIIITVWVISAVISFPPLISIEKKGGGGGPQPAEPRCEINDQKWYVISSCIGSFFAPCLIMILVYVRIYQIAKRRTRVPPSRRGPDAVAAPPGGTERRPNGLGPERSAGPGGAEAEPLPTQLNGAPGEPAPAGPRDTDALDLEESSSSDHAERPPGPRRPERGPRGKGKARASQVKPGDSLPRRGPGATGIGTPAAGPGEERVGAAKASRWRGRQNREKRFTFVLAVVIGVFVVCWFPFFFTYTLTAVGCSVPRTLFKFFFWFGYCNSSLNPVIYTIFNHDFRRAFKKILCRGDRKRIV
# 5-HT2A receptor = 5-HT2A receptor (Homo sapiens, UniProt P28223); experiment: pKi of test compounds, 5-HT2A receptor
# 5HT1A = target: T2, 5HT1A (Homo sapiens, UniProt P08908); experiment: pKi of test compounds, 5HT1A receptor
# T2 sequence (P08908 1-422): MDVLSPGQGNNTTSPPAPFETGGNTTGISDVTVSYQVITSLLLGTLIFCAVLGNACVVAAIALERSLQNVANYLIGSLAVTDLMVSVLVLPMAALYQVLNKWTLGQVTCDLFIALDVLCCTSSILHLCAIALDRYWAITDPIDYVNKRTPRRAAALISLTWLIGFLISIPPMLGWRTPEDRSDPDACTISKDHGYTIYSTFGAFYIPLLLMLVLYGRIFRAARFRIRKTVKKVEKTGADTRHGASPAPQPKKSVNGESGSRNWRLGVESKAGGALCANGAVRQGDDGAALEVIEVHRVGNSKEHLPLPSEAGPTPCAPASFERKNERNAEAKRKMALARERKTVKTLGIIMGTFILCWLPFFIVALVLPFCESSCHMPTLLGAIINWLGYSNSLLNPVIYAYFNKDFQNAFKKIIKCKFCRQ
# D2 = D2 (Homo sapiens, UniProt P14416); experiment: pKi of test compounds, D2 receptor
# 5HT2C = target: T3, 5HT2C (Homo sapiens, UniProt P28335); experiment: pKi of test compounds, 5HT2C receptor
# T3 sequence (P28335 33-458): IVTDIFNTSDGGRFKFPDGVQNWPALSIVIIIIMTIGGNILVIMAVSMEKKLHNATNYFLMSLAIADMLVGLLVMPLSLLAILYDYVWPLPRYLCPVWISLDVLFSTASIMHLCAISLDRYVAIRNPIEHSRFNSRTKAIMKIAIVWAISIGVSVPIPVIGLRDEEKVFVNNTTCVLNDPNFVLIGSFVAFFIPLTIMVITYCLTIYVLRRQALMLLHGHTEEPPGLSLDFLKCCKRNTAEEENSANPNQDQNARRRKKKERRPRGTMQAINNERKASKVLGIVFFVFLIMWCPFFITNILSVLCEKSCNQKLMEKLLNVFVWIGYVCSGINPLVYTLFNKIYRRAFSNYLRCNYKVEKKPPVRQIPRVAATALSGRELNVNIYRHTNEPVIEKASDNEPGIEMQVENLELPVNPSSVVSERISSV
# D1 = D1 (Homo sapiens, UniProt P21728); experiment: pKi of test compounds, D1 receptor
# Alpha1A = target: T4, Alpha1A (Homo sapiens, UniProt P35348); experiment: pKi of test compounds, adrenergic receptor Alpha1A
# T4 sequence (P35348 1-466): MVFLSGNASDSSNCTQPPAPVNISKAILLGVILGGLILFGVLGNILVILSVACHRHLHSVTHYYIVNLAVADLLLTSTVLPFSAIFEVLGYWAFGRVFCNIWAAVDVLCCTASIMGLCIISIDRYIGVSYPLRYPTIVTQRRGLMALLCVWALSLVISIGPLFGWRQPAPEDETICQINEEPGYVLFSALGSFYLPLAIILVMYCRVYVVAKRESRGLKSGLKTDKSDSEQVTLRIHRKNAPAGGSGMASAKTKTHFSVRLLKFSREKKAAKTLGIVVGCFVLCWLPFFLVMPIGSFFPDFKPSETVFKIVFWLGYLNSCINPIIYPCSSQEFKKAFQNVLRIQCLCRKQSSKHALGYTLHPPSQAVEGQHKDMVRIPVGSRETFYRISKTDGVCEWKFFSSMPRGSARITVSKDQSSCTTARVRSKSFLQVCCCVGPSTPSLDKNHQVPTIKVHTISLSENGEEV
# D4 receptor = target: T5, D4 receptor (Homo sapiens, UniProt P21917); experiment: pKi of test compounds, D4 receptor
# T5 sequence (P21917 1-419): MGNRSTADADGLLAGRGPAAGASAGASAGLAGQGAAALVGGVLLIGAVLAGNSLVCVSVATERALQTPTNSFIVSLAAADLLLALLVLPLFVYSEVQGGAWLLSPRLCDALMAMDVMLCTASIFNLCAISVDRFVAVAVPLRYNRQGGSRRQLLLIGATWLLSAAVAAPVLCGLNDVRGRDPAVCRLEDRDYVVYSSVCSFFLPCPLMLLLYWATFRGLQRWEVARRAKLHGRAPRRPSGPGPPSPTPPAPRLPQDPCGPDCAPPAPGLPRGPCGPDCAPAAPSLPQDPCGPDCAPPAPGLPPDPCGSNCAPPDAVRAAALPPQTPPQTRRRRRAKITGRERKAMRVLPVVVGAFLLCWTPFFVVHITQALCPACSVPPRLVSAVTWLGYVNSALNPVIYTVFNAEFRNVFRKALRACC
# 5HT1F = 5HT1F (Homo sapiens, UniProt P30939); experiment: pKi of test compounds, 5HT1F receptor
# 5HT7rat = 5HT7rat (Rattus norvegicus, UniProt P32305); experiment: pKi of test compounds, 5HT7 receptor
# Beta2 = Beta2 (Homo sapiens, UniProt P07550); experiment: pKi of test compounds, adrenergic receptor Beta2
# 5HT6rat = 5HT6rat (Rattus norvegicus, UniProt P31388); experiment: pKi of test compounds, 5HT6 receptor
# 5HT1E = 5HT1E (Homo sapiens, UniProt P28566); experiment: pKi of test compounds, 5HT1E receptor
# Beta1 = Beta1 (Homo sapiens, UniProt P08588); experiment: pKi of test compounds, adrenergic receptor Beta1
# Chain of D2 (P14416 whole entry): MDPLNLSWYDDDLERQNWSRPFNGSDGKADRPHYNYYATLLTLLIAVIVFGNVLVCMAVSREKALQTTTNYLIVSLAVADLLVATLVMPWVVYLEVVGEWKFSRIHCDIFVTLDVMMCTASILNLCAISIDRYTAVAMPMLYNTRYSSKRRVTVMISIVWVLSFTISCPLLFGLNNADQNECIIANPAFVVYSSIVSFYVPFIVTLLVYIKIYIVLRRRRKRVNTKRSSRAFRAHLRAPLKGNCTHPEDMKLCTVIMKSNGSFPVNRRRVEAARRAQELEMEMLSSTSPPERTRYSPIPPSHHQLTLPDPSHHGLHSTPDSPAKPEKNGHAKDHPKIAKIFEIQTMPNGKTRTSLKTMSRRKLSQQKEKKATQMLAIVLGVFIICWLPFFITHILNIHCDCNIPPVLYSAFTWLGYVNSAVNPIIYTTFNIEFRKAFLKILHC
# Chain of 5HT1B (P28222 whole entry, species assumed): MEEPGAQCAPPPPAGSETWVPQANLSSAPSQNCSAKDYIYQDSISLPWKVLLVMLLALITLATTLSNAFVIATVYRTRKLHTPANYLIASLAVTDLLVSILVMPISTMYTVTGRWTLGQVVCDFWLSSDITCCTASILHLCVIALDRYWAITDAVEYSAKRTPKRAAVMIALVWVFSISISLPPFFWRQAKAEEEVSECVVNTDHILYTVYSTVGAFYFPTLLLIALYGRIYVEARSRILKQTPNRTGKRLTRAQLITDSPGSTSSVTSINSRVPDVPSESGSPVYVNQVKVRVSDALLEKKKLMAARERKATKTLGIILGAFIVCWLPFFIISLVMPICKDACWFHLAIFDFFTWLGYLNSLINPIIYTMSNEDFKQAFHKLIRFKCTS
# Chain of D3 (P35462 whole entry): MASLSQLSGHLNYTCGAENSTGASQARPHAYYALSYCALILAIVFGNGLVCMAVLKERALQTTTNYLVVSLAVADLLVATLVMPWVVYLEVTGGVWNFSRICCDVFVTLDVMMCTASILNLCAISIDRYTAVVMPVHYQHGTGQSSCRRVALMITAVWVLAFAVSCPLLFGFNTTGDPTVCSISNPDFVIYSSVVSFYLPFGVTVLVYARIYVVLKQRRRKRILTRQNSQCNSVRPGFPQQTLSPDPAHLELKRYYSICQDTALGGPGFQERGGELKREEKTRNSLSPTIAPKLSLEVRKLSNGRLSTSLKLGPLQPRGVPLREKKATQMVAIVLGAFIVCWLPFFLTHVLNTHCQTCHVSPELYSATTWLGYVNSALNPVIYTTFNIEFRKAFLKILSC
# Chain of 5HT2B (P41595 whole entry, species assumed): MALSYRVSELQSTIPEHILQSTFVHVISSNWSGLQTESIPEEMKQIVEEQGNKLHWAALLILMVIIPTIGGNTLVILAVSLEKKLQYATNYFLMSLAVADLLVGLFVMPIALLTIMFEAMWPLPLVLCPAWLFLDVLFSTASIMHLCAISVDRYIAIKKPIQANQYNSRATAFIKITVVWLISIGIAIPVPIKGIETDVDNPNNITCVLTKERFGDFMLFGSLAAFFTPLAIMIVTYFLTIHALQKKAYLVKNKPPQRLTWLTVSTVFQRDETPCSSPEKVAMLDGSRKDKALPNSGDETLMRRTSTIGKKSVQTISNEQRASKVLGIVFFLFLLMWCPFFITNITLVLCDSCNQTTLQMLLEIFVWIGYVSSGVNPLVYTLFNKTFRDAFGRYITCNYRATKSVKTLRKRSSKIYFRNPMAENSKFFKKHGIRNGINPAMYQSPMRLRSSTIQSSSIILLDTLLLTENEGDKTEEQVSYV
# Chain of 5HT1D (P28221 whole entry, species assumed): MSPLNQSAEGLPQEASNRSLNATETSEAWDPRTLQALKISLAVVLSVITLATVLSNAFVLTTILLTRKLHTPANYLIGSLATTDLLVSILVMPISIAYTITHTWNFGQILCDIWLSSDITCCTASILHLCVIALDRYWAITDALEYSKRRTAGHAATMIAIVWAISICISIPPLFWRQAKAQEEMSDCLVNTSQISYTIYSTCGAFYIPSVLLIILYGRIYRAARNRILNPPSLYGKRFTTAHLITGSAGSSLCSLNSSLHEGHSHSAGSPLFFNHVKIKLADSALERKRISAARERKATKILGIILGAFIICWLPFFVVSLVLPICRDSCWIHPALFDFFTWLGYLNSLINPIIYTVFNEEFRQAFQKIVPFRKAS
# Chain of D1 (P21728 whole entry): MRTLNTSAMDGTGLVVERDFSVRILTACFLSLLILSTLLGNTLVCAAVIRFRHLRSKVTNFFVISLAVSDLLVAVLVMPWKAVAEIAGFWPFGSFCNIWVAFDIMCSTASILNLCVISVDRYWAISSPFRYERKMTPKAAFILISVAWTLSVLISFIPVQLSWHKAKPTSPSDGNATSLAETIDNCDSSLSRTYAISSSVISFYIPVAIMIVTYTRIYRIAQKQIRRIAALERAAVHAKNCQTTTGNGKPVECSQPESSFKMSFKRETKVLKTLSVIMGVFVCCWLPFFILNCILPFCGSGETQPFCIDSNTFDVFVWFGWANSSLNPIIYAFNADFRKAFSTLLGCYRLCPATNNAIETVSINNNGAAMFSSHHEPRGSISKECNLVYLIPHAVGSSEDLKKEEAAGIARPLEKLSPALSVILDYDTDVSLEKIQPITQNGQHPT
# Chain of 5HT1E (P28566 whole entry, species assumed): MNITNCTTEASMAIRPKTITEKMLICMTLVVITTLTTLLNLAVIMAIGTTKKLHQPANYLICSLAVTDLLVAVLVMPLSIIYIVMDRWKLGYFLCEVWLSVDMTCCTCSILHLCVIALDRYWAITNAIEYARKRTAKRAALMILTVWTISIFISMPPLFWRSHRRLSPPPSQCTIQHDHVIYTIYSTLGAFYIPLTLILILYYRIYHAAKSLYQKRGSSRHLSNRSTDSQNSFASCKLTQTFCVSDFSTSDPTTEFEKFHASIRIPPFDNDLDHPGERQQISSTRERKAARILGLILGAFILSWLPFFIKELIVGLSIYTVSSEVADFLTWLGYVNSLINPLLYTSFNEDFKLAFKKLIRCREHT
# Chain of 5-HT2A receptor (P28223 whole entry): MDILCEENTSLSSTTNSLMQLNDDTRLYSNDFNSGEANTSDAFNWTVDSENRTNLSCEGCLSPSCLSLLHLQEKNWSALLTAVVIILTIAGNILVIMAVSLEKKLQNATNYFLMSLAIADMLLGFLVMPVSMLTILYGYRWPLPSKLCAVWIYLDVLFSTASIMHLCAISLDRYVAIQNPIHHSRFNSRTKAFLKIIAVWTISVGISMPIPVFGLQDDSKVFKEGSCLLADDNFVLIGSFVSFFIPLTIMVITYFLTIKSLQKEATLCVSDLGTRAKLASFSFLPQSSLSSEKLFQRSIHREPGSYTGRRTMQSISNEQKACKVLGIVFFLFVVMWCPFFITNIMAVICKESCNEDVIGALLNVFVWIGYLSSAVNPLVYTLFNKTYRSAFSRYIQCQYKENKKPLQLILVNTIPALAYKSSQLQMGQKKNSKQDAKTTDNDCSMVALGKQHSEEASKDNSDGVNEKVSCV
# Chain of Beta2 (P07550 whole entry): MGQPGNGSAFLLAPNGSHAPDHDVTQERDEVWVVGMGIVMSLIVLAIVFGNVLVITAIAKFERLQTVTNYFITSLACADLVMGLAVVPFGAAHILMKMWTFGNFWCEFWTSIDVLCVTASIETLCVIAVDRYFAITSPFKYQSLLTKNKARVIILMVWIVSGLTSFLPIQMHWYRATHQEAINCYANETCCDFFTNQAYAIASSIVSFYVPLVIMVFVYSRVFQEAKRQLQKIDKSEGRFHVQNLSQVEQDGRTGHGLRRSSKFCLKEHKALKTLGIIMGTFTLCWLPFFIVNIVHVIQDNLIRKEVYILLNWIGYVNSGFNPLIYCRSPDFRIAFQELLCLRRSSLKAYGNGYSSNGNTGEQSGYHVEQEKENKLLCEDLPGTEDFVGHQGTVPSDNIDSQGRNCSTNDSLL
# Chain of 5HT6rat (P31388 whole entry): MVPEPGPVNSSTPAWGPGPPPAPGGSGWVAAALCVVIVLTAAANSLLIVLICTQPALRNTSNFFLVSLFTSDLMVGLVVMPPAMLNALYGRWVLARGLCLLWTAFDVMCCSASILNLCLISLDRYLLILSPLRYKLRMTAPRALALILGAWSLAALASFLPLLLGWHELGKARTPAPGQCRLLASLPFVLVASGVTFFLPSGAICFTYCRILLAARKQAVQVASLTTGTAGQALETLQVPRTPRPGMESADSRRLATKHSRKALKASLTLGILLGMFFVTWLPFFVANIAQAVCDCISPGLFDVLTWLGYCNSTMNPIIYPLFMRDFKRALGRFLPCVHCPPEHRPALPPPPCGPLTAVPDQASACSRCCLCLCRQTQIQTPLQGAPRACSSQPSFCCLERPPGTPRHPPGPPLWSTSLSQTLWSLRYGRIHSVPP
# Chain of 5HT1F (P30939 whole entry, species assumed): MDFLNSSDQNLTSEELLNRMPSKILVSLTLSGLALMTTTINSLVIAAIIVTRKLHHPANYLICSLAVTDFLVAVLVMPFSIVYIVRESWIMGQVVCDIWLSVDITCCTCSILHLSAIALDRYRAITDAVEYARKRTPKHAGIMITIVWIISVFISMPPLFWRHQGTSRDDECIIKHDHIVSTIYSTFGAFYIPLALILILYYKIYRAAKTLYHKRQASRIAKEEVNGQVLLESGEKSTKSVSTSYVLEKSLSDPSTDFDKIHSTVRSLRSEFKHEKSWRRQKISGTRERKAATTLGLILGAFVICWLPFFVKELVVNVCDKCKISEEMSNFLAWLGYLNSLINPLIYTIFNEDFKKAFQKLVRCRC
structure (smiles),measurement,setting,value
OC1(c2ccc(Cl)cc2)CCN(Cc2c[nH]c3ccccc23)CC1 [L741626],pKi 5HT2B,5HT2B,6-7
same,pKi D3,D3,7-8
same,pKi 5HT1B,5HT1B,<6
same,pKi 5HT1D,5HT1D,<6
same,pKi Alpha2A,Alpha2A,<6
O=C1N(CCN2CCC(c3noc4cc(F)ccc34)CC2)CCN1c1ccccc1 [S18327],pKi 5-HT2A,5-HT2A receptor,8-9
same,pKi D3,D3,6-7
same,pKi 5HT1A,5HT1A,7-8
same,pKi D2,D2,7-8
same,pKi 5HT2C,5HT2C,6-7
same,pKi D1,D1,7-8
same,pKi Alpha1A,Alpha1A,>9
same,pKi D4,D4 receptor; D4,8-9
same,pKi Alpha2A,Alpha2A,6-7
CN1CCN(C2=Nc3cc(Cl)ccc3Nc3ccccc32)CC1 [Clozapine],Ki,5HT1F,100 to 1000 nM
O=C1Cc2cc(CCN3CCN(c4nsc5ccccc45)CC3)c(Cl)cc2N1 [Ziprasidone],Ki,5HT7rat,1 to 10 nM
same,Ki,5HT2B,1 to 10 nM
same,Ki,Beta2,> 1000 nM
same,Ki,5HT1A,1 to 10 nM
same,Ki,5HT6rat,10 to 100 nM
same,Ki,5HT1B,< 1 nM
same,Ki,5HT1E,100 to 1000 nM
same,Ki,5HT1D; read-out: pKi 5HT1D (converted),1 to 10 nM
same,Ki,Beta1,> 1000 nM
OCCOCCN1CCN(C2=Nc3ccccc3Sc3ccccc32)CC1 [Seroquel],Ki,5HT1E,> 1000 nM
O=C1CC2(CCCC2)CC(=O)N1CCCCN1CCN(c2nsc3ccccc23)CC1 [Tiospirone],Ki,5-HT2A receptor,< 1 nM
same,Ki,D3,1 to 10 nM
same,Ki,D2,1 to 10 nM
same,Ki,Alpha1A,< 1 nM
same,Ki,D4 receptor,1 to 10 nM
same,Ki,Alpha2A,100 to 1000 nM
CCN1CCC[C@H]1CNC(=O)c1c(O)c(Cl)cc(Cl)c1OC [Raciopride],Ki,D3; read-out: pKi D3 (converted),1 to 10 nM
same,Ki,5HT1A,> 1000 nM
same,Ki,5HT2C,> 1000 nM
same,Ki,D1,> 1000 nM
same,Ki,Alpha1A,> 1000 nM
same,Ki,Alpha2A,> 1000 nM
N#Cc1ccc2c(c1)[C@H]1CN(CCCCNC(=O)c3ccc(-c4ccccc4)cc3)C[C@@H]1CO2 [S33084],pKi 5HT2B,5HT2B,6-7
same,pKi D3,D3,>9
same,pKi 5HT1A,5HT1A,<6
same,pKi D2,D2,7-8
same,pKi 5HT2C,5HT2C,7-8
same,pKi 5HT1B,5HT1B,6-7
same,pKi D1,D1,6-7
same,pKi Alpha1A,Alpha1A,6-7
same,pKi 5HT1D,5HT1D,6-7
same,pKi Alpha2A,Alpha2A,<6
COC(=O)[C@@H]1[C@H]2C[C@H]3c4[nH]c5ccccc5c4CCN3C[C@@H]2CC[C@@H]1O [Yohimbine],Ki,D2; read-out: pKi D2 (converted),100 to 1000 nM
same,Ki,5HT1D,10 to 100 nM
